Laboratory results from patent publication US8217066B2, “Compounds as lysophosphatidic acid receptor antagonists” (Amira Pharmaceuticals, Inc., priority 2009, dated 2012).

Molecular target: T1, human LPA1 (Homo sapiens, UniProt Q92633)
T1 construct: the full-length cDNA for human LPA1 was obtained by PCR of the reverse transcription reaction; expressed in transfected cells
Assay: LPA1 calcium flux assay (HLPA1 Ca Flux)
Assay type: cell-based
Conditions: CHO cells stably expressing human LPA1, stimulated with 10 nM LPA
Experimental: A 1.1 kb cDNA encoding the human LPA1 receptor was cloned from human lung. Human lung RNA (Clontech Laboratories, Inc. USA) was reverse transcribed using the RETROscript kit (Ambion, Inc.) and the full-length cDNA for human LPA1 was obtained by PCR of the reverse transcription reaction. The nucleotide sequence of the cloned human LPA1 was determined by sequencing and confirmed to be identical to the published human LPA1 sequence (An et al. Biochem. Biophys. Res. Commun. 231:619 (1997). The cDNA was cloned into the pcDNA5/FRT expression plasmid and transfected in CHO cells using lipofectamine 2000 (Invitrogen Corp., USA). Clones stably expressing human LPA1 were selected using hygromycin and identified as cells that show Ca-influx in response to LPA.
Human LPA1 or LPA3 expressing CHO cells are seeded at 20,000-45,000 cells per well in a 96-well poly-D-lysine coated plate one or two days before the assay. Prior to the assay, the cells are washed once with PBS and then cultured in serum-free media overnight. On the day of the assay, a calcium indicator dye (Calcium 4, Molecular Devices) in assay buffer (HBSS with Ca^2+ and Mg^2+ and containing 20 mM Hepes and 0.3% fatty-acid free human serum albumin) is added to each well and incubation continued for 1 hour at 37° C. […] of test compounds in 2.5% DMSO are added to the cells and incubation continued at room temperature for 30 minutes. Cells are the stimulated by the addition of 10 nM LPA and intracellular Ca^2+ measured using the Flexstation 3 (Molecular Devices). IC50s are determined using Graphpad prism analysis of drug titration curves.

T1 sequence (Q92633 whole entry): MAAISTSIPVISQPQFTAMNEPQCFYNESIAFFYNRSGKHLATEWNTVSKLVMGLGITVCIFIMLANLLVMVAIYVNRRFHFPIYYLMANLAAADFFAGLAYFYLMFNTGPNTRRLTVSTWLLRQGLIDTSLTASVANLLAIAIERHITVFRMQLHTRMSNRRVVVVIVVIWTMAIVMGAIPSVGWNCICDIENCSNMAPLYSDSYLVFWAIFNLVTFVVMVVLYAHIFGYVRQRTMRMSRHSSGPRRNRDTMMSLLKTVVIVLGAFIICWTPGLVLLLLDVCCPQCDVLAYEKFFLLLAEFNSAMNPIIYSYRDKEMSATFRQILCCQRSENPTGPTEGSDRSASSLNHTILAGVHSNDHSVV

Row | IC50 | SMILES
1 | < 300 nM | Cc1noc(-c2ccc(-c3ccc(C4(C(=O)O)CC4)cc3)cc2)c1NCCCc1ccccc1 [Compound 2, 1-{4′-[3-Methyl-4-(3-phenyl-propylamino)-isoxazol-5-yl]-biphenyl-4-yl}-cyclopropanecarboxylic acid]
2 | 300 to 1000 nM | Cc1noc(-c2ccc(-c3ccc(C4(C(=O)O)CC4)cc3)cc2)c1CCC(O)Cc1ccccc1 (stereo not drawn) [Compound 23, 1-{4′-[4-(3-Hydroxy-4-phenyl-butyl)-3-methyl-isoxazol-5-yl]-biphenyl-4-yl}-cyclopropanecarboxylic acid]
3 | < 300 nM | Cc1noc(-c2ccc(-c3ccc(C4(C(=O)O)CC4)cc3)cc2)c1C(O)CNCc1ccccc1 (stereo not drawn) [Compound 29, 1-{4′-[4-(2-Benzylamino-1-hydroxy-ethyl)-3-methyl-isoxazol-5-yl]-biphenyl-4-yl}-cyclopropanecarboxylic acid]
4 | < 300 nM | Cc1noc(-c2ccc(-c3ccc(C4(C(=O)O)CC4)cc3)cc2)c1C(C)(O)CCCc1ccccc1 (stereo not drawn) [Compound 26, 1-{4′-[4-(1-Hydroxy-1-methyl-4-phenyl-butyl)-3-methyl-isoxazol-5-yl]-biphenyl-4-yl}-cyclopropanecarboxylic acid]
5 | < 300 nM | Cc1noc(-c2ccc(-c3ccc(C4(C(=O)O)CC4)cc3)cc2)c1CCOCc1ccccc1Cl [Compound 15, 1-(4′-{4-[2-(2-Chloro-benzyloxy)-ethyl]-3-methyl-isoxazol-5-yl}-biphenyl-4-yl)-cyclopropanecarboxylic acid]
6 | < 300 nM | Cc1ccc(S(=O)(=O)NC(=O)C2(c3ccc(-c4ccc(-c5onc(C)c5C(O)CCCc5ccccc5)cc4)cc3)CC2)cc1 (stereo not drawn) [Compound 78, N-(1-{4′-[4-(1-Hydroxy-4-phenyl-butyl)-3-methyl-isoxazol-5-yl]-biphenyl-4-yl}-cyclopropanecarbonyl)-4-methyl-benzenesulfonamide]
7 | < 300 nM | Cc1noc(-c2ccc(-c3ccc(C4(C(=O)O)CC4)cc3)cc2)c1C(O)C(C)(C)CCc1ccccc1 (stereo not drawn) [Compound 45, 1-{4′-[4-(1-Hydroxy-2,2-dimethyl-4-phenyl-butyl)-3-methyl-isoxazol-5-yl]-biphenyl-4-yl}-cyclopropanecarboxylic acid]
8 | 1000 to 50000 nM | Cc1noc(-c2ccc(-c3ccc(C4(C(=O)O)CC4)cc3)cc2)c1COCC(C)(O)c1ccccc1 (stereo not drawn) [Compound 19, 1-{4′-[4-(2-hydroxy-2-phenyl-propoxymethyl)-3-methyl-isoxazol-5-yl]-biphenyl-4-yl}-cyclopropanecarboxylic acid]
9 | < 300 nM | Cc1noc(-c2ccc(-c3ccc(C4(C(=O)O)CC4)cc3)cc2)c1CC(C)(O)CCc1ccccc1 (stereo not drawn) [Compound 25, 1-{4′-[4-(2-Hydroxy-2-methyl-4-phenyl-butyl)-3-methyl-isoxazol-5-yl]-biphenyl-4-yl}-cyclopropanecarboxylic acid]
10 | < 300 nM | Cc1noc(-c2ccc(-c3ccc(C4(C(=O)O)CC4)cc3)cc2)c1NC(C)CC(C)(C)c1ccccc1 (stereo not drawn) [Compound 69, 1-{4′-[4-(1,3-Dimethyl-3-phenyl-butylamino)-3-methyl-isoxazol-5-yl]-biphenyl-4-yl}-cyclopropanecarboxylic acid]
11 | < 300 nM | Cc1noc(-c2ccc(-c3ccc(C4(C(=O)O)CC4)cc3)cc2)c1NC(C)CCc1ccccc1Cl (stereo not drawn) [Compound 53, 1-(4′-{4-[3-(2-Chloro-phenyl)-1-methyl-propylamino]-3-methyl-isoxazol-5-yl}-biphenyl-4-yl)-cyclopropanecarboxylic acid]
12 | < 300 nM | Cc1noc(-c2ccc(-c3ccc(C4(C(=O)O)CC4)cc3)cc2)c1COC(C)Cc1ccccc1 (stereo not drawn) [Compound 9, 1-{4′-[3-Methyl-4-(1-methyl-2-phenyl-ethoxymethyl)-isoxazol-5-yl]-biphenyl-4-yl}-cyclopropanecarboxylic acid]
13 | < 300 nM | Cc1noc(-c2ccc(-c3ccc(C4(C(=O)O)CC4)cc3)cc2)c1CNC[C@H](C)c1ccccc1 [Compound 22, 1-(4′-{3-Methyl-4-[((R)-2-phenyl-propylamino)-methyl]-isoxazol-5-yl}-biphenyl-4-yl)-cyclopropanecarboxylic acid]
14 | < 300 nM | Cc1noc(-c2ccc(-c3ccc(C4(C(=O)O)CC4)cc3)cc2)c1COCCc1ccccc1 [Compound 8, 1-[4′-(3-Methyl-4-phenethyloxymethyl-isoxazol-5-yl)-biphenyl-4-yl]-cyclopropanecarboxylic acid]
15 | < 300 nM | Cc1noc(-c2ccc(-c3ccc(C4(C(=O)O)CC4)cc3)cc2)c1C(O)COCCc1ccccc1 (stereo not drawn) [Compound 59, 1-{4′-[4-(1-Hydroxy-2-phenethyloxy-ethyl)-3-methyl-isoxazol-5-yl]-biphenyl-4-yl}-cyclopropanecarboxylic acid]
16 | < 300 nM | COc1ccc(CCC(C)Nc2c(C)noc2-c2ccc(-c3ccc(C4(C(=O)O)CC4)cc3)cc2)cc1 (stereo not drawn) [Compound 50, 1-(4′-{4-[3-(4-Methoxy-phenyl)-1-methyl-propylamino]-3-methyl-isoxazol-5-yl}-biphenyl-4-yl)-cyclopropanecarboxylic acid]
17 | 1000 to 50000 nM | Cc1noc(-c2ccc(-c3ccc(C4(C(=O)O)CC4)cc3)cc2)c1C(F)(F)CCCc1ccccc1 [Compound 46, 1-{4′-[4-(1,1-Difluoro-4-phenyl-butyl)-3-methyl-isoxazol-5-yl]-biphenyl-4-yl}-cyclopropanecarboxylic acid]
18 | < 300 nM | Cc1noc(-c2ccc(-c3ccc(C4(C(=O)O)CC4)cc3)cc2)c1C(O)CCc1ccccc1 (stereo not drawn) [Compound 34, 1-{4′-[4-(1-Hydroxy-3-phenyl-propyl)-3-methyl-isoxazol-5-yl]-biphenyl-4-yl}-cyclopropanecarboxylic acid]
19 | < 300 nM | Cc1noc(-c2ccc(-c3ccc(C4(C(=O)NS(C)(=O)=O)CC4)cc3)cc2)c1C(O)COCCc1ccccc1 (stereo not drawn) [Compound 74, N-(1-{4′-[4-(1-Hydroxy-2-phenethyloxy-ethyl)-3-methyl-isoxazol-5-yl]-biphenyl-4-yl}-cyclopropanecarbonyl)-methanesulfonamide]
20 | < 300 nM | Cc1noc(-c2ccc(-c3ccc(C4(C(=O)O)CC4)cc3)cc2)c1CCSCc1ccccc1 [Compound 18, 1-{4′-[4-(2-Benzylsulfanyl-ethyl)-3-methyl-isoxazol-5-yl]-biphenyl-4-yl}-cyclopropanecarboxylic acid]
21 | < 300 nM | Cc1noc(-c2ccc(-c3ccc(C4(C(=O)O)CC4)cc3)cc2)c1C(O)C(F)(F)CCc1ccc(C(F)(F)F)cc1 (stereo not drawn) [Compound 64, 1-(4′-{4-[2,2-Difluoro-1-hydroxy-4-(4-trifluoromethyl-phenyl)-butyl]-3-methyl-isoxazol-5-yl}-biphenyl-4-yl)-cyclopropanecarboxylic acid]
22 | < 300 nM | Cc1noc(-c2ccc(-c3ccc(C4(C(=O)O)CC4)cc3)cc2)c1NCCC(C)c1ccccc1 (stereo not drawn) [Compound 1, 1-{4′-[3-Methyl-4-(3-phenyl-butylamino)-isoxazol-5-yl]-biphenyl-4-yl}-cyclopropanecarboxylic acid]
23 | < 300 nM | Cc1noc(-c2ccc(-c3ccc(C4(C(=O)NS(=O)(=O)C5CC5)CC4)cc3)cc2)c1C(O)CCCc1ccccc1 (stereo not drawn) [Compound 79]
24 | 300 to 1000 nM | Cc1noc(-c2ccc(-c3ccc(C4(C(=O)O)CC4)cc3)cc2)c1CNCCc1ccccc1 [Compound 5, 1-{4′-[3-Methyl-4-(phenethylamino-methyl)-isoxazol-5-yl]-biphenyl-4-yl}-cyclopropanecarboxylic acid]
